In brackets after ≈: the same amount, converted by molar mass.
Experiments:
[1] = molecular target: T1, Ser83Phe mutant S. Typhimurium DNA gyrase (Salmonella typhimurium, UniProt P0A2I3+P37411, S83F); assay: Fluoroquinolone-inhibited DNA supercoiling assay, GyrA Ser83Phe DNA gyrase; assay type: biochemical; conditions: read-out: IC50s ± SD, Ser83Phe (converted)
T1 construct: made in house; host or cells: Escherichia coli BL21(DE3)
Source text: (§1) Recombinant DNA gyrase was obtained as separate subunits, GyrA and GyrB. In total, plasmids encoding nine subunits including WT GyrA and GyrB as well as seven GyrA with amino acid substitutions (Ser83Phe, Ser83Ile, Ser83Tyr, Asp87Gly, Asp87Asn, Asp87Tyr, and […]) in the quinolone resistance determining region were constructed as described in our previous study ([38]). These plasmids were introduced into Escherichia coli BL21(DE3) (Merck KGaA, Darmstadt, Germany), and protein expression was induced in the bacterial cells. A transformed E. coli was inoculated into Luria-Bertani broth supplemented with ampicillin (50 mg/L) and incubated at 37°C until the optical density value reached 0.60. Expression of GyrA and GyrB was induced by adding 1 mM isopropyl beta-D-1-thiogalactopyranoside (Wako Pure Chemical Industries Ltd, Osaka, Japan) followed by incubation at 16°C for 40 h (for GyrA), or 18°C for 13 h (for GyrB). To release the expressed protein, E. coli cells were harvested by centrifugation, suspended in a native binding buffer containing complete mini EDTA-free (Roche Applied Science, Mannheim, Germany), and then sonicated at a 30% duty cycle with 10 cycles of 40 s on and 40 s off (Sonifier 250; Branson, Danbury, CT). The recombinant DNA gyrase subunits were purified by column chromatography using Ni-NTA agarose resin (Thermo Fisher Scientific, Inc., Waltham, MA) and dialyzed against DNA gyrase dilution buffer [50 mM Tris-HCl, pH 7.5; 100 mM KCl, 2 mM dithiothreitol (DTT), 1 mM EDTA]. […] The protein purity was assessed by sodium dodecyl sulfate-polyacrylamide gel electrophoresis (SDS-PAGE) (ATTO, Tokyo, Japan) as shown in Fig. 7.
(§2) The reaction mixture was incubated at 37°C for 60 min and then the reaction was halted by adding 8 µL of stop solution (5% SDS, 25% glycerol, and 0.25 mg/mL of bromophenol blue) ([45]). […] The amount of supercoiled DNA was quantified by its intensity using ImageJ, the digital image processing software (https://imagej.nih.gov/ij/download.html).

[2] = molecular target: T2, Asp87Asn mutant S. Typhimurium DNA gyrase (Salmonella typhimurium, UniProt P0A2I3+P37411, D87N); assay: Fluoroquinolone-inhibited DNA supercoiling assay, GyrA Asp87Asn DNA gyrase; assay type: biochemical; conditions: read-out: IC50s ± SD, Ap87Asn (converted)
T2 construct: made in house; host or cells: Escherichia coli BL21(DE3)
Source text: as §1, §2

[3] = tested on: S. Enteritidis NBRC 3313; assay: microbe, parasite or virus in culture; assay type: cell-based, Salmonella Enteritidis; conditions: micro-broth dilution, 37°C, 16 h; for MIC: Salmonella enterica, read-out: MIC ± SD, S. Enteritidis
Procedure: (§3) A suspension containing approximately 5 × 10^5 CFU/mL of each Salmonella strain was transferred into 96-well plate containing serially diluted fluoroquinolones and incubated at 37°C for 16 h.

[4] = molecular target: T3, Asp87Gly mutant S. Typhimurium DNA gyrase (Salmonella typhimurium, UniProt P0A2I3+P37411, D87G); assay: Fluoroquinolone-inhibited DNA supercoiling assay, GyrA Asp87Gly DNA gyrase; assay type: biochemical
T3 construct: made in house; host or cells: Escherichia coli BL21(DE3)
Source text: as §1, §2

[5] = molecular target: T4, Ser83Phe-Asp87Asn double-mutant S. Typhimurium DNA gyrase (Salmonella typhimurium, UniProt P0A2I3+P37411, D87N/S83F); assay: Fluoroquinolone-inhibited DNA supercoiling assay, GyrA Ser83Phe-Asp87Asn DNA gyrase; assay type: biochemical; conditions: for IC50 against double-mutant DNA gyrase relative to WT: ratio IC50 double mutant / WT; for IC50: supercoiling assay, GyrA double mutant Ser83Phe-Asp87Asn, read-out: IC50s ± SD, Ser83Phe-Asp87Asn (converted)
T4 construct: made in house; host or cells: Escherichia coli BL21(DE3)
Source text: Recombinant DNA gyrase was obtained as separate subunits, GyrA and GyrB. In total, plasmids encoding nine subunits including WT GyrA and GyrB as well as seven GyrA with amino acid substitutions (Ser83Phe, Ser83Ile, Ser83Tyr, Asp87Gly, Asp87Asn, Asp87Tyr, and […]) in the quinolone resistance determining region were constructed as described in our previous study ([38]). These plasmids were introduced into Escherichia coli BL21(DE3) (Merck KGaA, Darmstadt, Germany), and protein expression was induced in the bacterial cells. A transformed E. coli was inoculated into Luria-Bertani broth supplemented with ampicillin (50 mg/L) and incubated at 37°C until the optical density value reached 0.60. Expression of GyrA and GyrB was induced by adding 1 mM isopropyl beta-D-1-thiogalactopyranoside (Wako Pure Chemical Industries Ltd, Osaka, Japan) followed by incubation at 16°C for 40 h (for GyrA), or 18°C for 13 h (for GyrB). To release the expressed protein, E. coli cells were harvested by centrifugation, suspended in a native binding buffer containing complete mini EDTA-free (Roche Applied Science, Mannheim, Germany), and then sonicated at a 30% duty cycle with 10 cycles of 40 s on and 40 s off (Sonifier 250; Branson, Danbury, CT). The recombinant DNA gyrase subunits were purified by column chromatography using Ni-NTA agarose resin (Thermo Fisher Scientific, Inc., Waltham, MA) and dialyzed against DNA gyrase dilution buffer [50 mM Tris-HCl, pH 7.5; 100 mM KCl, 2 mM dithiothreitol (DTT), 1 mM EDTA]. The obtained protein was mixed with glycerol to prevent denaturation and stored in small aliquots at −80°C for future use. The protein purity was assessed by sodium dodecyl sulfate-polyacrylamide gel electrophoresis (SDS-PAGE) (ATTO, Tokyo, Japan) as shown in Fig. 7.
The reaction mixture was incubated at 37°C for 60 min and then the reaction was halted by adding 8 µL of stop solution (5% SDS, 25% glycerol, and 0.25 mg/mL of bromophenol blue) ([45]). Next, 10 µL of each reaction mixture was subjected to gel electrophoresis for 80 min at 50 mA in 1.2% agarose gel in 1×Tris-acetate-EDTA (TAE) buffer. Subsequently, the gel was stained with 0.5 µg/mL of ethidium bromide for 30 min. The presence of supercoiled DNA can be easily distinguished as a separated band under the UV light. The amount of supercoiled DNA was quantified by its intensity using ImageJ, the digital image processing software (https://imagej.nih.gov/ij/download.html).

[6] = tested on: S. Typhimurium NBRC 13245; assay: microbe, parasite or virus in culture; assay type: cell-based, Salmonella Typhimurium; conditions: micro-broth dilution, 37°C, 16 h; for MIC: Salmonella enterica, read-out: MIC ± SD, S. Typhimurium
Procedure: as §3

[7] = molecular target: T5, WT S. Typhimurium DNA gyrase (Salmonella typhimurium, UniProt P0A2I3+P37411); assay: Fluoroquinolone-inhibited DNA supercoiling assay, WT DNA gyrase; assay type: biochemical; conditions: read-out: IC50s ± SD, WT (converted)
T5 construct: made in house; host or cells: Escherichia coli BL21(DE3)
Source text: as §1, §2

[8] = molecular target: T6, Asp87Tyr mutant S. Typhimurium DNA gyrase (Salmonella typhimurium, UniProt P0A2I3+P37411, D87Y); assay: Fluoroquinolone-inhibited DNA supercoiling assay, GyrA Asp87Tyr DNA gyrase; assay type: biochemical
T6 construct: made in house; host or cells: Escherichia coli BL21(DE3)
Source text: as §1, §2

[9] = molecular target: T7, Ser83Ile mutant S. Typhimurium DNA gyrase (Salmonella typhimurium, UniProt P0A2I3+P37411, S83I); assay: Fluoroquinolone-inhibited DNA supercoiling assay, GyrA Ser83Ile DNA gyrase; assay type: biochemical; conditions: read-out: IC50s ± SD, Ser83Ile (converted)
T7 construct: made in house; host or cells: Escherichia coli BL21(DE3)
Source text: as §1, §2

[10] = molecular target: T8, Ser83Tyr mutant S. Typhimurium DNA gyrase (Salmonella typhimurium, UniProt P0A2I3+P37411, S83Y); assay: Fluoroquinolone-inhibited DNA supercoiling assay, GyrA Ser83Tyr DNA gyrase; assay type: biochemical; conditions: read-out: IC50s ± SD, Ser83Tyr (converted)
T8 construct: made in house; host or cells: Escherichia coli BL21(DE3)
Source text: as §1, §2

[11] = molecular target: T9, GryA-Ser83Ile S. Typhimurium DNA gyrase (Salmonella typhimurium, UniProt P0A2I3+P37411, S83I); assay: Fluoroquinolone-mediated DNA cleavage assay, GyrA Ser83Ile DNA gyrase; assay type: biochemical
T9 construct: made in house; host or cells: Escherichia coli BL21(DE3)
Source text: as §1, with “CT).” for “CT). The recombinant DNA gyrase subunits were purified by column chromatography using Ni-NTA agarose resin (Thermo Fisher Scientific, Inc., Waltham, MA) and dialyzed against DNA gyrase dilution buffer [50 mM Tris-HCl, pH 7.5; 100 mM KCl, 2 mM dithiothreitol (DTT), 1 mM EDTA].”, “7. […]” for “7.”

[12] = molecular target: T5, WT S. Typhimurium DNA gyrase; assay: Fluoroquinolone-mediated DNA cleavage assay, WT DNA gyrase; assay type: biochemical
Source text: as §1, with “CT).” for “CT). The recombinant DNA gyrase subunits were purified by column chromatography using Ni-NTA agarose resin (Thermo Fisher Scientific, Inc., Waltham, MA) and dialyzed against DNA gyrase dilution buffer [50 mM Tris-HCl, pH 7.5; 100 mM KCl, 2 mM dithiothreitol (DTT), 1 mM EDTA].”, “7. […]” for “7.”

T7 sequence (P37411 whole entry S83I, one chain of several): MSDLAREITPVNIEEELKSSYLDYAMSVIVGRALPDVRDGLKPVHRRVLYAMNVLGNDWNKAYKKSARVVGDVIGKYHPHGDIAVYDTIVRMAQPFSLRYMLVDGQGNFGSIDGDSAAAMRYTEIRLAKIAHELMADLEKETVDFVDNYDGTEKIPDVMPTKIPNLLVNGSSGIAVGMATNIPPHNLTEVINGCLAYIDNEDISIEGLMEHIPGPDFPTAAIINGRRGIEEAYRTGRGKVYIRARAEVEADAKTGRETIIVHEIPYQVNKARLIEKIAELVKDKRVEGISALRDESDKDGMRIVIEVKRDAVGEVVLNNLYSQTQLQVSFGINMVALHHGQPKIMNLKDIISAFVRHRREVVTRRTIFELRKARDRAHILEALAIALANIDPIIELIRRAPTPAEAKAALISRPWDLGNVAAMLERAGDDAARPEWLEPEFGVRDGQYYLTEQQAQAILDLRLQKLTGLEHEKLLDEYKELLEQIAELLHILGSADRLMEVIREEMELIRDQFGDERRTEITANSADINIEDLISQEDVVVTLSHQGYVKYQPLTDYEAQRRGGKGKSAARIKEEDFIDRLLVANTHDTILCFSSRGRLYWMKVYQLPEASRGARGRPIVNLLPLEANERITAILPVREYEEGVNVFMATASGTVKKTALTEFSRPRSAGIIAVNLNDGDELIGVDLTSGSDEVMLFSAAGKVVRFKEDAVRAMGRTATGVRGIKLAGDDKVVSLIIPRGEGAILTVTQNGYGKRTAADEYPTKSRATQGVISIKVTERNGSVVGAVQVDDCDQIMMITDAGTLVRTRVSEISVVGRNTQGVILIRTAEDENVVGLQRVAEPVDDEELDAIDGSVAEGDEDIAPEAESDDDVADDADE
T1 sequence (P37411 whole entry S83F, one chain of several): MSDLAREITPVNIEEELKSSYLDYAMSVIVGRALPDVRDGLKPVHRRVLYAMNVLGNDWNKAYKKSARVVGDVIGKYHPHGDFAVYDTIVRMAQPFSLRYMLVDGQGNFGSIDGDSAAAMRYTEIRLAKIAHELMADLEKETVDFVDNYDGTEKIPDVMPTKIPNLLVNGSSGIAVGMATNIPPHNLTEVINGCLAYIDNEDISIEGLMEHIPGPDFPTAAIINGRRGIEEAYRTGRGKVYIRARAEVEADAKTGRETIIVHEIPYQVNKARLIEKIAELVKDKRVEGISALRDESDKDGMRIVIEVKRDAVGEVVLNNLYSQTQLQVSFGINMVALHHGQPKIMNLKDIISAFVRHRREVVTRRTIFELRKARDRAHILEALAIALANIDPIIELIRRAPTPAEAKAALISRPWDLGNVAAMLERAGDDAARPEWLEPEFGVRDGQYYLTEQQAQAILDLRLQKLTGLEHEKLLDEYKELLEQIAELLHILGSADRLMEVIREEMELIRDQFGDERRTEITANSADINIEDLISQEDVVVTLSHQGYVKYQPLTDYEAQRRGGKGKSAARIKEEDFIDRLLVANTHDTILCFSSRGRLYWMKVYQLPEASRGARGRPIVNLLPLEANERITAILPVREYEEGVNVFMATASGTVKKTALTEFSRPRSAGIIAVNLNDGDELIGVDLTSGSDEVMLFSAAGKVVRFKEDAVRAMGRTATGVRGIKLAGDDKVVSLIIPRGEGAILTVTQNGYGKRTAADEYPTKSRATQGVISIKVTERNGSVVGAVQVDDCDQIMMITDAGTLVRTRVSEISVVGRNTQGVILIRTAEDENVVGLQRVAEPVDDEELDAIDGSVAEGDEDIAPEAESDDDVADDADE
T6 sequence (P37411 whole entry D87Y, one chain of several): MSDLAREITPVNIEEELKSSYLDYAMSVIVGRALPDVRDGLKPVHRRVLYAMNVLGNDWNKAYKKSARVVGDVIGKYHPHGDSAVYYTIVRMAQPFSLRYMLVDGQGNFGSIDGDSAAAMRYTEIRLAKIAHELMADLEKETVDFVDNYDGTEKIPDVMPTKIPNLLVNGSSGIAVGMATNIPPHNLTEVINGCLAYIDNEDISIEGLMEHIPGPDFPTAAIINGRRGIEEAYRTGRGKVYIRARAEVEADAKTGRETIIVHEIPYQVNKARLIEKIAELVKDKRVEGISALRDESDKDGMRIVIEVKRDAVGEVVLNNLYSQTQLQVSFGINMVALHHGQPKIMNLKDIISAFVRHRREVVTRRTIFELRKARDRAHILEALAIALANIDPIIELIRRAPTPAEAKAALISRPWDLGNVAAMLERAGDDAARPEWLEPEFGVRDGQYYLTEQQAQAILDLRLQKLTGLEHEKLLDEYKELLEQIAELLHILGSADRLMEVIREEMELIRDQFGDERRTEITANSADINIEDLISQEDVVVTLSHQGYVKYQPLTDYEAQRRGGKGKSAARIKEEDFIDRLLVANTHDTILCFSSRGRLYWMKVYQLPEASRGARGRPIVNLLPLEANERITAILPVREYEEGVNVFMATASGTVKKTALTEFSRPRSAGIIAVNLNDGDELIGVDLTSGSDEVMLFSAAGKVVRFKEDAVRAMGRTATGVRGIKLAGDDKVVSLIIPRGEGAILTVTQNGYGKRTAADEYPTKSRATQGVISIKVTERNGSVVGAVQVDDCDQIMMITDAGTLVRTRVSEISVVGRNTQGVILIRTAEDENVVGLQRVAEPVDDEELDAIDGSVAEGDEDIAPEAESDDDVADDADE
T3 sequence (P37411 whole entry D87G, one chain of several): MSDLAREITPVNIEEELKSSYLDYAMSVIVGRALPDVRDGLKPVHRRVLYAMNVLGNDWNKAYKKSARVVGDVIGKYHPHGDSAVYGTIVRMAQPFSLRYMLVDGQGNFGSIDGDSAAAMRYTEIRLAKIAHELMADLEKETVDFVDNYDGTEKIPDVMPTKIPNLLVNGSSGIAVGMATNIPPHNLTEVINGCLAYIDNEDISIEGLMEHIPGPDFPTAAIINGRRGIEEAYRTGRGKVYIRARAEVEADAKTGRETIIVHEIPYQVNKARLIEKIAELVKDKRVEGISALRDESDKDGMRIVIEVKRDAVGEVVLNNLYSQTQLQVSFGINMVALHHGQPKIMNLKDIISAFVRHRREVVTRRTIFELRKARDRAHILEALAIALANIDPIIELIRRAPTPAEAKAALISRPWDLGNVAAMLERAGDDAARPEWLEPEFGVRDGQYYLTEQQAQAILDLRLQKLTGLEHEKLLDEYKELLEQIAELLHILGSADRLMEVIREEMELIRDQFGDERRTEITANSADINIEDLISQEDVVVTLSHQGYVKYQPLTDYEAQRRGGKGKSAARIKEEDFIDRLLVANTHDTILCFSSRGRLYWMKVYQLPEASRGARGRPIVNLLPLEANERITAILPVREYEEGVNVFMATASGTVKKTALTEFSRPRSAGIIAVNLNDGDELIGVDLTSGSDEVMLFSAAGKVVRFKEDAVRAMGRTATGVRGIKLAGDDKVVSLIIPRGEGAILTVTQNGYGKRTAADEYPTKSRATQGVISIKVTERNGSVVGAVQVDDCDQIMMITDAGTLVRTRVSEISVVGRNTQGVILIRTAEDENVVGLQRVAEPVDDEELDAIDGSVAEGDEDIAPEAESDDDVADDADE
T4 sequence (P37411 whole entry S83F/D87N, one chain of several): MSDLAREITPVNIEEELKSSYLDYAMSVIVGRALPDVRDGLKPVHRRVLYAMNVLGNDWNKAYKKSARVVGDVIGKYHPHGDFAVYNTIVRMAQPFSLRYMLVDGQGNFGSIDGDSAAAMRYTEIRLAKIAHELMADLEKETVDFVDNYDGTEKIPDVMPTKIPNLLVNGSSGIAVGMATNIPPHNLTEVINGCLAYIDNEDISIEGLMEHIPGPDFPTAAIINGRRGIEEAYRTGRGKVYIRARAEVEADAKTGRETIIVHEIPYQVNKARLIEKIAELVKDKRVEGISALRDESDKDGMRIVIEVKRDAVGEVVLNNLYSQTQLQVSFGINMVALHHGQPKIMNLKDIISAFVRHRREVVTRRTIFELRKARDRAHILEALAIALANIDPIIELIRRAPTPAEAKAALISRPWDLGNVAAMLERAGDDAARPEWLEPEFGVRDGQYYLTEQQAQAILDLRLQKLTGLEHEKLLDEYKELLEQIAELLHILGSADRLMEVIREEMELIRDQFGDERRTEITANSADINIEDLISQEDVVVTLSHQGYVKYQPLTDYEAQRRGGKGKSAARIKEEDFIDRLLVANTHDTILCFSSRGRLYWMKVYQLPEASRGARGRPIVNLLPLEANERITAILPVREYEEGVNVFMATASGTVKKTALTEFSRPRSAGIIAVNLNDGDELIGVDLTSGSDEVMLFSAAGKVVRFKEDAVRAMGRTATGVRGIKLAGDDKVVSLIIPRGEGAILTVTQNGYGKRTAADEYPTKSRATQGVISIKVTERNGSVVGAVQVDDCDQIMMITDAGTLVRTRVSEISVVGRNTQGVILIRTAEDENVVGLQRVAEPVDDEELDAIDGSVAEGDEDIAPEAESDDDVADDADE

| Structure (SMILES) | IC50 [1] [nM] | IC50 [2] [nM] | MIC [3] [µg/mL] | MIC ± SD, S. Enteritidis [3] [µg/mL] | IC50 [4] [nM] | IC50 against double-mutant DNA gyrase relative to WT [5] [fold] | IC50 [5] [nM] | MIC [6] [µg/mL] | MIC ± SD, S. Typhimurium [6] [µg/mL] | IC50 [7] [nM] | IC50 [8] [nM] | IC50 [9] [nM] | IC50 [10] [nM] | CC25s, Ser83Ile (concentration that induces 25% of maximum DNA cleavage) [11] [µg/mL] | CC25s, WT (concentration that induces 25% of maximum DNA cleavage) [12] [µg/mL] |
| --- | --- | --- | --- | --- | --- | --- | --- | --- | --- | --- | --- | --- | --- | --- | --- |
| Cc1c(N2CC(NC(C)C)C2)c(F)cc2c(=O)c(C(=O)O)cn(-c3nc(N)c(F)cc3F)c12 [WQ-3810] | 113 | 1290 | 0.04 (≈ 0.0867 µM) | 0.04 (≈ 0.0867 µM) | 69.3 | 110 | 7910 | 0.04 (≈ 0.0867 µM) | 0.04 (≈ 0.0867 µM) | 71.5 | 71.5 | 2510 | 897 | – | – |
| Nc1nc(-n2cc(C(=O)O)c(=O)c3cc(F)c(N4CC(O)C4)c(Cl)c32)c(F)cc1F [WQ-3034] | 59 | 1020 | 0.016 (≈ 0.0363 µM) | 0.16 (≈ 0.363 µM) | 54.5 | 59 | 2680 | 0.08 (≈ 0.182 µM) | 0.08 (≈ 0.182 µM) | 45.4 | 68.1 | 1910 | 495 | 0.58 | 0.16 |
| Cc1c(N2CC(O)C2)c(F)cc2c(=O)c(C(=O)O)cn(-c3nc(N)c(F)cc3F)c12 [WQ-3154] | 71.4 | 2080 | 0.08 (≈ 0.19 µM) | 0.08 (≈ 0.19 µM) | 83.3 | 70 | 4310 | 0.08 (≈ 0.19 µM) | 0.08 (≈ 0.19 µM) | 61.9 | 80.9 | 2750 | 592 | – | – |

— publication PMC10715191, “Exploration of the novel fluoroquinolones with high inhibitory effect against quinolone-resistant DNA gyrase of Salmonella Typhimurium” (Microbiology Spectrum, 2023)
